pIC50: −log10 of the molar value.
Key:
[1] = molecular target: T1, human recombinant Bcl-XL protein (Homo sapiens, UniProt Q07817); assay: Fluorescence polarization test for inhibition of BCL-XL binding to FITC-BIM; conditions: 10 nM BCL-XL, 10 nM FITC-BIM, read-out: FP BCL-XL IC50
T1 construct: purchased Beijing Yiqiao Shenzhou Biotechnology Co., Ltd. 10455-H0SE
Method in brief: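 Human recombinant Bcl-XL (10 nM diluted stock) preincubated with compound 15 min at RT in PBS pH 7.4, 1 mM DTT, then FITC-BIM peptide (10 nM diluted stock) added for 30 min in dark. FP read at ex 480/em 535 nm; no-protein wells = 100% inhibition; IC50 from 8-point 4-fold dilution curve fit.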

[2] = molecular target: T2, human recombinant Bcl-2 protein (Homo sapiens, UniProt P10415); assay: Fluorescence polarization test for inhibition of BCL-2 binding to FITC-BIM; conditions: 5 nM BCL-2, 5 nM FITC-BIM, read-out: FP BCL-2 IC50
T2 construct: purchased Beijing Yigiao Shenzhou Biotechnology Co., Ltd. 10195-HOSE
Method in brief: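 FP competition: compound preincubated 15 min with recombinant human Bcl-2 (diluted to 5 nM), then FITC-BIM (diluted to 5 nM) added for 30 min at room temperature in PBS pH 7.4 with 1 mM DTT. Polarization read at 480/535 nm; IC50 from 8-point 4-fold series fitted by four-parameter equation.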

[3] = tested on: RS4;11 cells (acute lymphoblastic leukemia cells); assay: RS4;11 cell proliferation, CellTilter-Glo luminescence cell viability assay; type: cell-based; conditions: CTG readout after 48 hours
Method in brief: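 RS4;11 cells plated overnight were exposed for 48 h at 37 °C, 5% CO2 to an 8-point, 4-fold compound dilution series; the vehicle control contained 0.2% DMSO. Viability was read by CellTiter-Glo luminescence. Percent inhibition was referenced to no-cell and DMSO controls, and IC50 came from a four-parameter sigmoidal fit.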

T2 sequence (P10415 whole entry): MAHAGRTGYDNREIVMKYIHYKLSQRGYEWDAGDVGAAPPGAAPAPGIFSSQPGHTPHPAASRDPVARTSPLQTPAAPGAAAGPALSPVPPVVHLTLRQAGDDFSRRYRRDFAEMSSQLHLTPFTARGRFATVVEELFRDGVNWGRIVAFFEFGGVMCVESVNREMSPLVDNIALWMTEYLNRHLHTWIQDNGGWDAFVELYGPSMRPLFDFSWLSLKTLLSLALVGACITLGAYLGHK
T1 sequence (Q07817 whole entry): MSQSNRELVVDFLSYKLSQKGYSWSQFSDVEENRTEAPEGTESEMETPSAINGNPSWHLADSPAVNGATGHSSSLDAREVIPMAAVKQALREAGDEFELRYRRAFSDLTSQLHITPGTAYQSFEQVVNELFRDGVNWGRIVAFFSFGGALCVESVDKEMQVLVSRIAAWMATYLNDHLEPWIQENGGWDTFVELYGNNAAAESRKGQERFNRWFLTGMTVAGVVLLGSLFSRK

pIC50 [1]	pIC50 [2]	pIC50 ([3]; Homo sapiens, RS4-11)	Compound	pIC50 [3]
< 6.00	8.89	8.10	C[C@@H]1CN(c2ccc(C(=O)NS(=O)(=O)c3cc(F)c(NC[C@H]4COCCO4)c([N+](=O)[O-])c3)c(Oc3cnc4[nH]ccc4c3)c2)CCN1CC1=C(c2ccc(Cl)cc2)CC(C)(C)C(C)(C)C1 [Example 41, N-((4-((((S)-1,4-dioxan-2-yl)methyl)amino)-3-fluoro-5-nitrophenyl)sulfonyl)-2-((1H-pyrrolo[2,3-b]pyridin-5-yl)oxy)-4-((R)-4-((4′-chloro-4,4,5,5-tetramethyl-3,4,5,6-tetrahydro-[1,1′-biphenyl]-2-yl)methyl)-3-methylpiperazin-1-yl)benzamide]	–
< 6.00	< 6.30	< 6.00	CC1(C)CCC(CN2CCN(c3ccc(C(=O)NS(=O)(=O)c4ccc(NCC5CCOCC5)c([N+](=O)[O-])c4)c(Oc4cnc5[nH]ccc5c4)c3)[C@@H]3CCCC[C@H]32)=C(c2ccc(Cl)cc2)C1 [Example 57]	–
< 6.00	8.86	8.18	C[C@@H]1CN(c2ccc(C(=O)NS(=O)(=O)c3cc(F)c(NCC4CCOCC4)c([N+](=O)[O-])c3)c(Oc3cnc4[nH]ccc4c3)c2)CCN1CC1=C(c2ccc(Cl)cc2)CCC(C)(C)C1 [Example 28, (R)-2-((1H-pyrrolo[2,3-b]pyridin-5-yl)oxy)-4-(4-((4′-chloro-4,4-dimethyl-3,4,5,6-tetrahydro-[1,1′-biphenyl]-2-yl)methyl)-3-methylpiperazin-1-yl)-N-((3-fluoro-5-nitro-4--(((tetrahydro-2H-pyran-4-yl)methyl)amino)phenyl)sulfonyl)benzamide]	–
< 6.00	8.80	8.38	C[C@@H]1CN(c2ccc(C(=O)NS(=O)(=O)c3ccc(NC[C@H]4COCCO4)c([N+](=O)[O-])c3)c(Oc3cnc4[nH]ccc4c3)c2)CCN1CC1=C(c2ccc(Cl)cc2)CCC(C)(C)C1 [Example 29, N-((4-((((S)-1,4-dioxan-2-yl)methyl)amino)-3-nitrophenyl)sulfonyl)-2-((1H-pyrrolo[2,3-b]pyridin-5-yl)oxy)-4-((R)-4-((4′-chloro-4,4-dimethyl-3,4,5,6-tetrahydro-[1,1′-biphenyl]-2-yl)methyl)-3-methylpiperazin-1-yl) benzamide]	–
< 6.00	< 7.00	< 6.30	C[C@H]1CN(c2ccc(C(=O)NS(=O)(=O)c3ccc(NC[C@@H]4COCCO4)c([N+](=O)[O-])c3)c(Oc3cnc4[nH]ccc4c3)c2)CCN1CC1=C(c2ccc(Cl)cc2)CCC(C)(C)C1 [Example 53, N-((4-((((R)-1,4-dioxan-2-yl)methyl)amino)-3-nitrophenyl)sulfonyl)-2-((1H-pyrrolo[2,3-b]pyridin-5-yl)oxy)-4-((S)-4-((4′-chloro-4,4-dimethyl-3,4,5,6-tetrahydro-[1,1′-biphenyl]-2-yl)methyl)-3-methylpiperazin-1-yl)benzamide]	–
6.13	8.64	8.24	C[C@@H]1CN(c2ccc(C(=O)NS(=O)(=O)c3cc(F)c(NCC4CCN(C5COC5)CC4)c([N+](=O)[O-])c3)c(Oc3cnc4[nH]ccc4c3)c2)CCN1CC1=C(c2ccc(Cl)cc2)CC(C)(C)CC1 [Example 4, (R)-2-((1H-pyrrolo[2,3-b]pyridin-5-yl)oxy)-4-(4-((4′-chloro-5,5-dimethyl-3,4,5,6-tetrahydro-[1,1′-biphenyl]-2-yl)methyl)-3-methylpiperazin-1-yl)-N-((3-fluoro-5-nitro-4-(((1-(3-oxetanyl)piperidin-4-yl)methyl)amino)phenyl)sulfonyl) benzamide]	–
< 6.00	7.52	6.85	C[C@@H]1CN(c2ccc(C(=O)NS(=O)(=O)c3ccc(NCC4CCOCC4)c([N+](=O)[O-])c3)c(Oc3cnc4[nH]ccc4c3)c2)[C@H](C)CN1CC1=C(c2ccc(Cl)cc2)CC(C)(C)CC1 [Example 58, 2-((1H-Pyrrolo[2,3-b]pyridin-5-yl)oxy)-4-((2R,5R)-4-((4′-chloro-5,5-dimethyl-3,4,5,6-tetrahydro-[1,1′-biphenyl]-2-yl)methyl)-2,5-dimethylpiperazin-1-yl)-N-((3-nitro-4-(((tetrahydro-2H-pyran-4-yl)methyl)amino)phenyl)sulfonyl)benzamide]	–
< 6.00	8.34	8.21	C[C@@H]1CN(CC2=C(c3ccc(Cl)cc3)CC(C)(C)CC2)CCN1c1ccc(C(=O)NS(=O)(=O)c2ccc(NCC3CCOCC3)c([N+](=O)[O-])c2)c(Oc2cnc3[nH]ccc3c2)c1 [Example 8, (R)-2-((1H-pyrrolo[2,3-b]pyridin-5-yl)oxy)-4-(4-((4′-chloro-5,5-dimethyl-3,4,5,6-tetrahydro-[1,1′-biphenyl]-2-yl)methyl)-2-methylpiperazin-1-yl)-N-((3-nitro-4-(((tetrahydro-2H-pyran-4-yl)methyl)amino)phenyl)sulfonyl)benzamide]	–
< 6.00	8.50	7.66	C[C@@H]1CN(c2ccc(C(=O)NS(=O)(=O)c3cc(F)c(NCC4CCOCC4)c([N+](=O)[O-])c3)c(Oc3cnc4[nH]ccc4c3)c2)CCN1CC1=C(c2ccc(Cl)cc2)CCC2(CC2)C1 [Example 37]	–
6.08	9.08	8.64	C[C@@H]1CN(c2ccc(C(=O)NS(=O)(=O)c3cc(F)c(NC[C@H]4COCCO4)c([N+](=O)[O-])c3)c(Oc3cnc4[nH]ccc4c3)c2)CCN1CC1=C(c2ccc(Cl)cc2)CCC(C)(C)C1 [Example 30, N-((4-((((S)-1,4-dioxan-2-yl)methyl)amino)-3-fluoro-5-nitrophenyl)sulfonyl)-2-((1H-pyrrolo[2,3-b]pyridin-5-yl)oxy)-4-((R)-4-((4′-chloro-4,4-dimethyl-3,4,5,6-tetrahydro-[1,1′-biphenyl]-2-yl)methyl)-3-methylpiperazin-1-yl)benzamide]	–
< 6.00	8.30	7.27	C[C@@H]1CN(CC2=C(c3ccc(Cl)cc3)CCC(C)(C)C2)CCN1c1ccc(C(=O)NS(=O)(=O)c2ccc(NC[C@H]3COCCO3)c([N+](=O)[O-])c2)c(Oc2cnc3[nH]ccc3c2)c1 [Example 44, N-((4-((((S)-1,4-dioxan-2-yl)methyl)amino)-3-nitrophenyl)sulfonyl)-2-((1H-pyrrolo[2,3-b]pyridin-5-yl)oxy)-4-((R)-4-((4′-chloro-4,4-dimethyl-3,4,5,6-tetrahydro-[1,1′-biphenyl]-2-yl)methyl)-2-methylpiperazin-1-yl) benzamide]	–
< 6.00	8.09	7.17	C[C@@H]1CN(CC2=C(c3ccc(Cl)cc3)CC(C)(C)CC2)CCN1c1ccc(C(=O)NS(=O)(=O)c2cc(F)c(NCC3CCN(C4COC4)CC3)c([N+](=O)[O-])c2)c(Oc2cnc3[nH]ccc3c2)c1 [Example 10, (R)-2-((1H-pyrrolo[2,3-b]pyridin-5-yl)oxy)-4-(4-((4′-chloro-5,5-dimethyl-3,4,5,6-tetrahydro-[1,1′-biphenyl]-2-yl)methyl)-2-methylpiperazin-1-yl)-N-((3-fluoro-5-nitro-4-(((1-(3-oxetanyl)piperidin-4-yl)methyl)amino)phenyl)sulfonyl)benzamide]	–
< 6.00	< 7.00	< 6.30	C[C@H]1CN(c2ccc(C(=O)NS(=O)(=O)c3cc(F)c(NCC4CCOCC4)c([N+](=O)[O-])c3)c(Oc3cnc4[nH]ccc4c3)c2)CCN1CC1=C(c2ccc(Cl)cc2)CC(C)(C)CC1 [Example 7, (S)-2-((1H-pyrrolo[2,3-b]pyridin-5-yl)oxy)-(4-4-((4′-chloro-5,5-dimethyl-3,4,5,6-tetrahydro-[1,1′-biphenyl]-2-yl)methyl)-3-methylpiperazin-1-yl)-N-((3-fluoro-5-nitro-4-(((tetrahydro-2H-pyran-4-yl)methyl)amino)phenyl)sulfonyl) benzamide]	–
< 6.00	8.31	7.80	C[C@@H]1CN(CC2=C(c3ccc(Cl)cc3)CC(C)(C)CC2)CCN1c1ccc(C(=O)NS(=O)(=O)c2ccc(NC[C@H]3COCCO3)c([N+](=O)[O-])c2)c(Oc2cnc3[nH]ccc3c2)c1 [Example 12]	–
< 6.00	8.20	6.79	C[C@@H]1CN(CC2=C(c3ccc(Cl)cc3)CCC(C)(C)C2)CCN1c1ccc(C(=O)NS(=O)(=O)c2cc(F)c(NCC3CCOCC3)c([N+](=O)[O-])c2)c(Oc2cnc3[nH]ccc3c2)c1 [Example 43, (R)-2-((1H-pyrrolo[2,3-b]pyridin-5-yl)oxy)-4-(4-((4′-chloro-4,4-dimethyl-3,4,5,6-tetrahydro[1,1′-biphenyl]-2-yl)methyl)-2-methylpiperazin-1-yl)-N-((3-fluoro-5-nitro-4--(((tetrahydro-2H-pyran-4-yl)methyl)amino)phenyl)sulfonyl)benzamide]	–

Compound	pIC50 [1]	pIC50 [2]	pIC50 ([3]; Homo sapiens, RS4-11)	pIC50 [3]
2-((1H-Pyrrolo[2,3-b]pyridin-5-yl) oxy)-4-((R)-4-(((S)-4′-chloro-5- methyl-3,4,5,6-tetrahydro-[1,1′-biphenyl]- 2-yl)methyl)-2-methylpiperazn-1- yl)-N-((3-nitro-4-((((S)-4-(3-oxetan yl)morpholin-2-yl)methyl)amino) phenyl)sulfonyl)benzamide [Example 18]	< 6.00	8.88	–	8.62

Reference: patent publication US20230271959A1, “HETEROCYCLIC COMPOUND AS BCL-2 INHIBITOR” (Beijing Innocare Pharma Tech Co., Ltd., priority 2020, published 2023)
